According to patent US20240269139A1, “COMPOUNDS FOR TARGETED PROTEIN DEGRADATION OF KINASES” (DANA-FARBER CANCER INSTITUTE, INC., priority 2020, published 2024):
Like-named read-outs stand apart in the source and are kept apart here.

Tests used:
[1] = biological target: protein kinases (human kinome) (Homo sapiens, UniProt P30291); format: cell-based; details: for logFC of WEE1: WEE1 P30291-1
[2] = system: protein kinases (human kinome); format: cell-based; details: for logFC MAPK8: MAPK8 P45983-4
[3] = AURKB Q96GD4-5, experiment wp134
[4] = CDK9 (P50750-2) protein abundance, degrader vs DMSO, down
[5] = AURKB Q96GD4-5, experiment wp146
[6] = CLK1 P49759-3, experiment wp146
[7] = Experiment wp146, direction down

Chain of protein kinases (human kinome) (Homo sapiens, UniProt P30291) (P30291 whole entry): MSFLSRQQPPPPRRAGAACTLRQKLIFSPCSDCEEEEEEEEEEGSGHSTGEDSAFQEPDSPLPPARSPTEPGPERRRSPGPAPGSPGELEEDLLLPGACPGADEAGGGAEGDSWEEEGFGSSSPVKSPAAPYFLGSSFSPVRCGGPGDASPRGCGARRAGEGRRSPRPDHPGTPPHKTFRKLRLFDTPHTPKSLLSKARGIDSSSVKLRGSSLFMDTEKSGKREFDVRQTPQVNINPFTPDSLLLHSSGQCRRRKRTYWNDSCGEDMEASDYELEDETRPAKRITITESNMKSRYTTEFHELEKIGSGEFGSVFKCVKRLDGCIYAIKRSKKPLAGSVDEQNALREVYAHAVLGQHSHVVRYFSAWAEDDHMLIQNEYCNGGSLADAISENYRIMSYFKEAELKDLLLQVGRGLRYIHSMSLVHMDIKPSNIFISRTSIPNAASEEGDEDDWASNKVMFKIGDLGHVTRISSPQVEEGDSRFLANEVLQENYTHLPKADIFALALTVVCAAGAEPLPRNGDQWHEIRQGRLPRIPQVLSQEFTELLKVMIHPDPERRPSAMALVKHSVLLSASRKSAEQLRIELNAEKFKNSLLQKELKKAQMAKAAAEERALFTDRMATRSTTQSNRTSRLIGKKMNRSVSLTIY

**Q.** Which “logFC of WEE1” value ([1]; experiment wp134) does the source give for `O=C(COc1cccc2c1C(=O)N(C1CCC(=O)NC1=O)C2=O)NCCCCCCCN1CCc2cc(Nc3ncc(C4CC4)c(NCCCNC(=O)C4CCC4)n3)ccc2C1` (stereo not shown) [BSJ.04.178] here?
**A.** The value was −0.5688.

**Q.** And the “logFC WEE1 (P30291-1)” value ([1]; experiment wp134)?
**A.** The value was −0.5688.

**Q.** What about the logFC [2, 3] of the same compound?
**A.** The logFC was −0.5074.

**Q.** And the “logFC AURKB” value [2, 3]?
**A.** Its value is −0.5074.

**Q.** And the logFC [2, 4]?
**A.** Its logFC is −1.43.

**Q.** What about the logFC ([2]; MARK3 (P27448-5), experiment wp134) of the same compound?
**A.** Its logFC is −0.4977.

**Q.** And the “logFC CDK9 (P50750-2)” value ([2]; experiment wp134)?
**A.** The value was −1.43.

**Q.** And the “logFC MARK3 (P27448-5)” value ([2]; experiment wp134, direction of change down)?
**A.** The value was −0.4977.

**Q.** For `CS(=O)(=O)Nc1cccc(-c2csc3cnc(Nc4ccc(N5CCN(CCCCCOc6cccc7c6C(=O)N(C6CCC(=O)NC6=O)C7=O)CC5)cc4)nc23)c1` (stereo not shown) [DB0614, N-(3-(2-((4-(4-(5-((2-(2,6-Dioxopiperidin-3-yl)-1,3-dioxoisoindolin-4-yl)oxy)pentyl)piperazin-1-yl)phenyl)amino)thieno[3,2-d]pyrimidin-7-yl)phenyl)methanesulfonamide], which “logFC of WEE1” value ([1]; experiment wp117) is on record?
**A.** The value was −1.777.

**Q.** And the “logFC WEE1 (P30291-1)” value ([1]; experiment wp045)?
**A.** The value was −1.876.

**Q.** What about the “logFC WEE1 (P30291-1)” value ([1]; experiment wp117) of the same compound?
**A.** The value was −1.777.

**Q.** And the logFC ([2]; CAMKK1 (Q8N5S9-2), experiment wp045)?
**A.** The logFC was −0.6487.

**Q.** And the “logFC of CAMKK1 (Q8N5S9-2)” value ([2]; Experiment wp045)?
**A.** Its value is −0.6487.

**Q.** And the “logFC MAPK8 (P45983-4)” value ([2]; Experiment wp045, direction down)?
**A.** The value was −0.6882.

**Q.** What about the “logFC of MAPK8 (P45983-2)” value ([2]; Experiment wp117) of the same compound?
**A.** Its value is −0.6328.

**Q.** What about the “logFC MAPK8 (P45983-2)” value ([2]; Experiment wp117, direction down) of the same compound?
**A.** The value was −0.6328.

**Q.** What about the “logFC LCK” value ([2]; LCK, accession P06239-3, experiment wp045, direction of change down) of the same compound?
**A.** Its value is −0.33.

**Q.** And the “logFC MAPK8” value ([2]; experiment wp045)?
**A.** Its value is −0.6882.

**Q.** And the logFC ([2]; PTK2B (Q14289-2), experiment wp117, direction down)?
**A.** Its logFC is −1.203.

**Q.** And the “logFC PTK2B” value ([2]; PTK2B, accession Q14289-2, experiment wp117, direction of change down)?
**A.** Its value is −1.203.

**Q.** What about the “kinases the bifunctional compound degrades” value ([2]; as stated for the structure in the embodiments) of the same compound?
**A.** Its value is “AAK1, AURKA, BMP2K, CAMKK1, CDK16, CDK4, CDK6, EIF2AK2, FER, GAK, LCK, LIMK2, MAP3K11, MAPK8, MAPK9, NEK9, PLK4, PTK2B, SIK2, STK17A, STK17B, ULK1, ULK3, and WEE1”.

**Q.** What about the “logFC LCK (P06239-3)” value ([2]; experiment wp045, direction of change down) of the same compound?
**A.** The value was −0.33.

**Q.** What about the “logFC CDK16 (Q00536-2)” value ([2]; experiment wp117) of the same compound?
**A.** The value was −0.5528.

**Q.** And the Kinase hits ([2]; kinases significantly downregulated vs DMSO (fold change cutoff −1.25, P-value<0.01), ≤8 h, 0.1-5 μM degrader, 7 cell lines)?
**A.** Its Kinase hits is “AAK1, AURKA, BMP2K, CAMKK1, CDK16, CDK4, CDK6, EIF2AK2, FER, GAK, LCK, LIMK2, MAP3K11, MAPK8, MAPK9, NEK9, PLK4, PTK2B, SIK2, STKI7A, STKI7B, ULK1, ULK3, WEE1”.

**Q.** What about the “Total no. kinase hits” value ([2]; number of degraded kinases per library compound) of the same compound?
**A.** Its value is 24.

**Q.** For `Cc1cc(Nc2ncc(Br)c(Nc3cccc(F)c3C(N)=O)n2)ccc1S(=O)(=O)NCCOCCOCCOCCOCCNc1cccc2c1C(=O)N(C1CCC(=O)NC1=O)C2=O` (stereo not shown) [TMX.02.174], which “logFC of WEE1” value ([1]; experiment wp146) is on record?
**A.** Its value is −1.142.

**Q.** And the “logFC WEE1 (P30291-1)” value ([1]; experiment wp146)?
**A.** The value was −1.142.

**Q.** What about the logFC [2, 5] of the same compound?
**A.** The logFC was −1.578.

**Q.** And the “logFC AURKB” value [2, 5]?
**A.** Its value is −1.578.

**Q.** And the “logFC GSK3B” value ([2]; Accession P49841-2, experiment wp146, direction down)?
**A.** The value was −0.6472.

**Q.** What about the logFC [2, 4] of the same compound?
**A.** The logFC was −1.666.

**Q.** What about the logFC [2, 6] of the same compound?
**A.** The logFC was −0.4606.

**Q.** What about the “logFC CLK1” value [2, 6] of the same compound?
**A.** The value was −0.4606.

**Q.** What about the “logFC MAPK8 (P45983-4)” value [2, 7] of the same compound?
**A.** The value was −0.7761.

**Q.** And the “logFC PRKAA1 (Q13131-2)” value [2, 7]?
**A.** The value was −1.622.

**Q.** What about the “logFC GSK3B” value ([2]; GSK3B P49841-2, experiment wp146) of the same compound?
**A.** Its value is −0.6472.

**Q.** And the “logFC MAPK8” value ([2]; experiment wp146)?
**A.** The value was −0.7761.

**Q.** And the “logFC RPS6KA1” value ([2]; RPS6KA1 (Q15418-2), experiment wp146)?
**A.** Its value is −0.6638.

**Q.** And the “logFC CDK9 (P50750-2)” value ([2]; experiment wp146)?
**A.** The value was −1.666.

**Q.** What about the “logFC CDK16 (Q00536-2)” value ([2]; experiment wp146) of the same compound?
**A.** Its value is −1.176.

**Q.** And the “logFC PRKAA1 (Q13131-2)” value ([2]; experiment wp146)?
**A.** Its value is −1.622.

**Q.** What about the “logFC RPS6KA1 (Q15418-2)” value ([2]; experiment wp146) of the same compound?
**A.** Its value is −0.6638.

**Q.** What about the “logFC NEK1 (Q96PY6-3)” value ([2]; experiment wp146, direction of change down) of the same compound?
**A.** The value was −0.3871.

**Q.** What about the “logFC NEK1” value ([2]; protein NEK1 (Q96PY6-3), experiment wp146, down) of the same compound?
**A.** The value was −0.3871.

**Q.** `Cc1cnc(Nc2ccc(N3CCN(CCCCCCC(=O)N[C@H](C(=O)N4C[C@H](O)C[C@H]4C(=O)N[C@@H](C)c4ccc(-c5scnc5C)cc4)C(C)(C)C)CC3)cc2)nc1Nc1cccc(S(=O)(=O)NC(C)(C)C)c1` [JWG.123] was tested. Which “logFC of WEE1” value ([1]; experiment wp195) did it give?
**A.** Its value is −1.368.

**Q.** What about the “logFC of WEE1 (P30291-1)” value ([1]; experiment wp195, direction of change down) of the same compound?
**A.** The value was −1.368.

**Q.** What does the source list for `CCc1cnn2c(N(Cc3ccc(N)nc3)C(=O)CCOCCOCCOCCNC(=O)CNc3cccc4c3C(=O)N(C3CCC(=O)NC3=O)C4=O)cc(N3CCCC[C@H]3CCO)nc12` (stereo partly shown) [MFH.5.115.2]?
**A.** logFC of WEE1 ([1]; experiment wp076, degrader vs DMSO): −0.7664; logFC WEE1 (P30291-1) ([1]; experiment wp076): −0.7664; logFC BUB1B ([2]; Accession O60566-3, experiment wp076, direction down): −0.5013; logFC BUB1B ([2]; BUB1B (O60566-3), experiment wp076): −0.5013; logFC ([2]; CSNK1A1 (P48729-2), experiment wp076): −0.349; logFC of CSNK1A1 (P48729-2) ([2]; experiment wp076): −0.349
